The text below walks through data of BindingDB's records for doi:10.1016/j.bmcl.2013.04.070 (2013).

The experiment deals with Presenilin-1 (Homo sapiens, UniProt P49768). As to the kind of experiment: Modulation of human gamma-secretase presenilin-1 subunit expressed in CHO cells coexpressing human APP assessed as decrease in amyloid beta 42 generation after 24 hrs by ELISA.

In general, IC50 refers to the concentration that inhibits the measured activity by half. With `CCCCCCCCOC(=O)C1(C)CCc2c(C)c(OCC(=O)O)c(C)c(C)c2O1` (stereo unspecified), the IC50 is 31.6 µM.
